Experimental data taken from the Kinase Knowledgebase extract (Sharma et al. 2016).

Legend:
PIK3CG (human) = PIK3CG (human) (UniProt P48736); experiment: Assessment of PI3KCG Kinase Activity
PIK3CD (Human) = PIK3CD (Human) (UniProt O00329); experiment: Assessment of PI3KCD Kinase Activity
PIK3CD (Human), sequence (O00329 whole entry, looked up): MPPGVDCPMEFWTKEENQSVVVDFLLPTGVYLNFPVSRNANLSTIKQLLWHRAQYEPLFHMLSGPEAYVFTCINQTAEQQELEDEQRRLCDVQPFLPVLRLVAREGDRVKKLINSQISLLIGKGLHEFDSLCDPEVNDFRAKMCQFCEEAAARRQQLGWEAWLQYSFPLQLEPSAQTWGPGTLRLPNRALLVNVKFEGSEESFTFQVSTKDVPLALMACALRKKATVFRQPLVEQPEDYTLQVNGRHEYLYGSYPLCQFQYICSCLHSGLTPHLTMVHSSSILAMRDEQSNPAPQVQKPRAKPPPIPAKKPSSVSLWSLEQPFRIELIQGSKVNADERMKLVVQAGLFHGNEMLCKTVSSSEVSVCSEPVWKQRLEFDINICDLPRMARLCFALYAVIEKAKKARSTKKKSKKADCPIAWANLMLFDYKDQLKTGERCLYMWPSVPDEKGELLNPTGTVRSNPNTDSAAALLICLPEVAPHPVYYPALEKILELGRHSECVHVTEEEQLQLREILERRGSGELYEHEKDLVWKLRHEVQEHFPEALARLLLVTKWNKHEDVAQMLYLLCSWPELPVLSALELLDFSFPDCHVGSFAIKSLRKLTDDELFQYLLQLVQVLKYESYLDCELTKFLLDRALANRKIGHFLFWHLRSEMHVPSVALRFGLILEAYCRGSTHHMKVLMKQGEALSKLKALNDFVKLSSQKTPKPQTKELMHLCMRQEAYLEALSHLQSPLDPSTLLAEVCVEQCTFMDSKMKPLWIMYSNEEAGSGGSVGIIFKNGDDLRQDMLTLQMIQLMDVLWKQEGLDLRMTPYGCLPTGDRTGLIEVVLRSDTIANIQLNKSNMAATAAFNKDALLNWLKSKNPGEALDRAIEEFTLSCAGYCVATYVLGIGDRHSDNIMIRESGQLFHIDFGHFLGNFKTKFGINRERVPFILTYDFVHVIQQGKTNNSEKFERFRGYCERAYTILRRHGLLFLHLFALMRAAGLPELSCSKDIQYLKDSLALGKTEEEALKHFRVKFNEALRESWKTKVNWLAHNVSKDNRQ

PIK3CG (human), sequence (P48736 whole entry, looked up): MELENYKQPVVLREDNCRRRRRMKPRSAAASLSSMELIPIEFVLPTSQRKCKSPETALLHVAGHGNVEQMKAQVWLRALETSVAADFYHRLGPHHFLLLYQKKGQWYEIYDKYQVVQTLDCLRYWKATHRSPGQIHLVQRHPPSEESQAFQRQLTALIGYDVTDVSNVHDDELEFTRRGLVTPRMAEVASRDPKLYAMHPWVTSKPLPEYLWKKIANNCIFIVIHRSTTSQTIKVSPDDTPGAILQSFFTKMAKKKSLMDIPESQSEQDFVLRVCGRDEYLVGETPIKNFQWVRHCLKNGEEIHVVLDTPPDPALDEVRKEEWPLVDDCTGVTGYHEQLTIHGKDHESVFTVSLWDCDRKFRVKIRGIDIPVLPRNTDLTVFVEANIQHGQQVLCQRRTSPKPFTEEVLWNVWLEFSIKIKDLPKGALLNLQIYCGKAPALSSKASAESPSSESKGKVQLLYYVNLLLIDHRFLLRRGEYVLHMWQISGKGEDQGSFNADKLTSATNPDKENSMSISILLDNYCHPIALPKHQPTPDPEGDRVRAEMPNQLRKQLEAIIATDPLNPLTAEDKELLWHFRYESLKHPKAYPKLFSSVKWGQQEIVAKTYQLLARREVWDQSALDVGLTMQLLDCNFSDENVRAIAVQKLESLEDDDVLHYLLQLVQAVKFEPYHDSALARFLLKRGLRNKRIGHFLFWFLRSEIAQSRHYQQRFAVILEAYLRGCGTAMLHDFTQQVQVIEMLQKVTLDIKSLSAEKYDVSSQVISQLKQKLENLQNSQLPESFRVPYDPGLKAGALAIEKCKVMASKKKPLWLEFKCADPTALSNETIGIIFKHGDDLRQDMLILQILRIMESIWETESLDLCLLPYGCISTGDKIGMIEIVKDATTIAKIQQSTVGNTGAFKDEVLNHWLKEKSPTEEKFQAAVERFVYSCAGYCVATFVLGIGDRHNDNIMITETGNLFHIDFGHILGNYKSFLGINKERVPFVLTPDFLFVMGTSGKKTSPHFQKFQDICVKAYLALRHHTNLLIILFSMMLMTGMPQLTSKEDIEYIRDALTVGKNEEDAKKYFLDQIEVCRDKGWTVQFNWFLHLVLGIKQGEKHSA

Cc1cccc2cc(Cn3nc(I)c4c(N)ncnc43)n(-c3ccccc3O)c(=O)c12
IC50 (PIK3CG (human)): < 100 nM | IC50 (PIK3CD (Human)): < 100 nM

Cc1cccc2cc(Cn3nc(-c4cccc(O)c4)c4c(N)ncnc43)n(C3CC3)c(=O)c12
IC50 (PIK3CG (human)): < 100 nM | IC50 (PIK3CD (Human)): < 100 nM

Cc1cccc2cc(Cn3nc(-c4ccc(F)c(O)c4)c4c(N)ncnc43)n(C(C)C)c(=O)c12
IC50 (PIK3CG (human)): < 100 nM | IC50 (PIK3CD (Human)): < 100 nM

Cc1ccccc1-n1c(Cn2nc(-c3cn[nH]c3)c3c(N)ncnc32)cc2cccc(C)c2c1=O
IC50 (PIK3CG (human)): < 100 nM | IC50 (PIK3CD (Human)): < 100 nM

Cc1cccc2cc(Cn3nc(-c4cc(O)cc(F)c4)c4c(N)ncnc43)n(C3CCCC3)c(=O)c12
IC50 (PIK3CG (human)): < 100 nM | IC50 (PIK3CD (Human)): < 100 nM

Cc1cccc2cc(Cn3nc(-c4cc(O)cc(F)c4)c4c(N)ncnc43)n(-c3ccccc3Cl)c(=O)c12
IC50 (PIK3CG (human)): < 100 nM | IC50 (PIK3CD (Human)): < 100 nM

Cc1ccccc1-n1c(Cn2nc(-c3cc(O)cc(F)c3)c3c(N)ncnc32)cc2ccccc2c1=O
IC50 (PIK3CG (human)): < 100 nM | IC50 (PIK3CD (Human)): < 100 nM

CCc1ccccc1-n1c(Cn2nc(-c3cc(O)cc(F)c3)c3c(N)ncnc32)nc2scc(C)c2c1=O
IC50 (PIK3CG (human)): < 100 nM | IC50 (PIK3CD (Human)): < 100 nM

Cc1cccc2cc(Cn3nc(-c4cccc(O)c4)c4c(N)ncnc43)n(-c3ccccc3O)c(=O)c12
IC50 (PIK3CG (human)): < 100 nM | IC50 (PIK3CD (Human)): < 100 nM

COc1cc(-c2nn(Cc3cc4cccc(C)c4c(=O)n3-c3ccccc3C)c3ncnc(N)c23)ccc1Cl
IC50 (PIK3CG (human)): < 100 nM

Cc1cccc2cc(Cn3nc(-c4cccc(O)c4)c4c(N)ncnc43)n(-c3ccccc3C(C)C)c(=O)c12
IC50 (PIK3CG (human)): < 100 nM | IC50 (PIK3CD (Human)): < 100 nM

Cc1cccc2cc(Cn3nc(I)c4c(N)ncnc43)n(C3CCCCC3)c(=O)c12
IC50 (PIK3CG (human)): < 100 nM

Cc1cccc2cc(C(C)Nc3ncnc4[nH]cnc34)n(-c3ccccc3F)c(=O)c12 (configuration not stated)
IC50 (PIK3CG (human)): < 100 nM | IC50 (PIK3CD (Human)): < 100 nM

Cc1cccnc1-n1c(Cn2nc(-c3ccc(F)c(O)c3)c3c(N)ncnc32)cc2cccc(C)c2c1=O
IC50 (PIK3CG (human)): < 100 nM | IC50 (PIK3CD (Human)): < 100 nM

Cc1cccc2cc(Cn3nc(-c4cc(O)cc(F)c4)c4c(N)ncnc43)n(-c3ccccc3C(C)C)c(=O)c12
IC50 (PIK3CG (human)): < 100 nM | IC50 (PIK3CD (Human)): < 100 nM

Cc1csc2nc(Cn3nc(-c4cccc(O)c4)c4c(N)ncnc43)n(-c3ccccc3C(F)(F)F)c(=O)c12
IC50 (PIK3CG (human)): < 100 nM | IC50 (PIK3CD (Human)): < 100 nM

CC(=O)Nc1nc2ccc(-c3nn(Cc4cc5cccc(C)c5c(=O)n4-c4ccccc4)c4ncnc(N)c34)cc2s1
IC50 (PIK3CG (human)): < 100 nM | IC50 (PIK3CD (Human)): < 100 nM

COc1ccccc1-n1c(Cn2nc(-c3cc(O)cc(F)c3)c3c(N)ncnc32)nc2scc(C)c2c1=O
IC50 (PIK3CG (human)): < 100 nM | IC50 (PIK3CD (Human)): < 100 nM

Cc1ccccc1-n1c(Cn2nc(-c3cccc(O)c3)c3c(N)ncnc32)nc2scc(C)c2c1=O
IC50 (PIK3CG (human)): < 100 nM | IC50 (PIK3CD (Human)): < 100 nM

Cc1ccccc1-n1c(Cn2nc(-c3ccc4ncnc(N)c4c3)c3c(N)ncnc32)cc2cccc(C)c2c1=O
IC50 (PIK3CG (human)): < 100 nM | IC50 (PIK3CD (Human)): < 100 nM

Cc1ccccc1-n1c(Cn2nc(-c3cc(O)cc(F)c3)c3c(N)ncnc32)nc2scc(C)c2c1=O
IC50 (PIK3CG (human)): < 100 nM | IC50 (PIK3CD (Human)): < 100 nM

Cc1ccccc1-n1c(Cn2nc(-c3ccc4nc(N)sc4c3)c3c(N)ncnc32)cc2cccc(C)c2c1=O
IC50 (PIK3CG (human)): < 100 nM | IC50 (PIK3CD (Human)): < 100 nM

Cc1ccccc1-n1c(Cn2nc(-c3ccc4cc[nH]c4c3)c3c(N)ncnc32)cc2cccc(C)c2c1=O
IC50 (PIK3CG (human)): < 100 nM | IC50 (PIK3CD (Human)): < 100 nM

COc1ccccc1-n1c(Cn2nc(-c3cccc(O)c3)c3c(N)ncnc32)cc2cccc(C)c2c1=O
IC50 (PIK3CG (human)): < 100 nM | IC50 (PIK3CD (Human)): < 100 nM

Cc1cccc2cc(Cn3nc(-c4ccc(O)c(F)c4)c4c(N)ncnc43)n(-c3ccccc3F)c(=O)c12
IC50 (PIK3CG (human)): < 100 nM

Cc1csc2nc(Cn3nc(-c4cc(O)cc(F)c4)c4c(N)ncnc43)n(-c3ccccc3F)c(=O)c12
IC50 (PIK3CG (human)): < 100 nM | IC50 (PIK3CD (Human)): < 100 nM

Cc1ccccc1-n1c(Cn2nc(I)c3c(N)ncnc32)cc2cccc(C)c2c1=O
IC50 (PIK3CG (human)): < 100 nM | IC50 (PIK3CD (Human)): < 100 nM

Cc1ccccc1-n1c(Cn2nc(-c3ccc(Cl)c(O)c3)c3c(N)ncnc32)cc2cccc(C)c2c1=O
IC50 (PIK3CG (human)): < 100 nM | IC50 (PIK3CD (Human)): < 100 nM

Cc1cccc2cc(Cn3nc(-c4cccc(O)c4)c4c(N)ncnc43)n(-c3ccccc3)c(=O)c12
IC50 (PIK3CG (human)): < 100 nM | IC50 (PIK3CD (Human)): < 100 nM

Cc1csc2nc(Cn3nc(-c4cccc(O)c4)c4c(N)ncnc43)n(-c3ccccc3C(C)C)c(=O)c12
IC50 (PIK3CG (human)): < 100 nM | IC50 (PIK3CD (Human)): < 100 nM
